± gives the expanded uncertainty stated by the source.
Details: Liquid, Frequency=8 MHz, Pulse-echo method

CCCC [butane]
Details | speed of sound [m/s]
199.99 K, 40128 kPa | 1640.8 ± 0.79
199.99 K, 45132 kPa | 1662 ± 0.8
199.99 K, 50136 kPa | 1682.6 ± 0.81
200 K, 1101.4 kPa | 1447.8 ± 0.72
200 K, 2102.1 kPa | 1453.5 ± 0.72
200 K, 3102.8 kPa | 1459.2 ± 0.72
200 K, 4103.5 kPa | 1464.9 ± 0.72
200 K, 5104.2 kPa | 1470.5 ± 0.72
200 K, 6105.1 kPa | 1476 ± 0.73
200 K, 7105.9 kPa | 1481.5 ± 0.73
200 K, 8106.6 kPa | 1487 ± 0.73
200 K, 9107.3 kPa | 1492.4 ± 0.73
200 K, 10108 kPa | 1497.8 ± 0.74
200 K, 12610 kPa | 1510.9 ± 0.74
200 K, 15112 kPa | 1523.8 ± 0.75
200 K, 17613 kPa | 1536.5 ± 0.75
200 K, 20115 kPa | 1548.9 ± 0.75
200 K, 25119 kPa | 1573.1 ± 0.76
200 K, 30123 kPa | 1596.4 ± 0.77
200 K, 35126 kPa | 1619 ± 0.78
200 K, 60143 kPa | 1722.2 ± 0.82
200 K, 70150 kPa | 1759.8 ± 0.84
200 K, 80157 kPa | 1795.8 ± 0.85
200 K, 90164 kPa | 1830.2 ± 0.86
200 K, 100171 kPa | 1863.2 ± 0.88
201 K, 250.62 kPa | 1437.2 ± 0.71
201 K, 600.55 kPa | 1439.2 ± 0.71
201 K, 1100.5 kPa | 1442.1 ± 0.71
201 K, 1101.5 kPa | 1442.2 ± 0.71
201 K, 2101.9 kPa | 1448 ± 0.72
201 K, 2102 kPa | 1448 ± 0.72
201 K, 3102.6 kPa | 1453.7 ± 0.72
201 K, 4103.4 kPa | 1459.4 ± 0.72
201 K, 5104 kPa | 1465 ± 0.72
220 K, 249.98 kPa | 1330.5 ± 10
220 K, 599.68 kPa | 1332.8 ± 0.67
220 K, 1100.7 kPa | 1336.1 ± 0.67
220 K, 1100.8 kPa | 1336.1 ± 0.67
220 K, 2101.6 kPa | 1342.7 ± 0.68
220 K, 2101.8 kPa | 1342.7 ± 0.68
220 K, 2102.1 kPa | 1342.7 ± 0.68
220 K, 2103.4 kPa | 1342.6 ± 0.68
220 K, 3102.3 kPa | 1349.1 ± 0.68
220 K, 3104.1 kPa | 1349.1 ± 0.68
220 K, 4103 kPa | 1355.5 ± 0.68
220 K, 4104.7 kPa | 1355.5 ± 0.68
220 K, 5103.6 kPa | 1361.9 ± 0.68
220 K, 6104.2 kPa | 1368.2 ± 0.68
220 K, 7104.9 kPa | 1374.3 ± 0.69
220 K, 8105.5 kPa | 1380.5 ± 0.69
220 K, 9106.2 kPa | 1386.6 ± 0.69
220 K, 10107 kPa | 1392.6 ± 0.69
220 K, 12609 kPa | 1407.3 ± 0.7
220 K, 15111 kPa | 1421.8 ± 0.71
220 K, 17612 kPa | 1435.8 ± 0.71
220 K, 20114 kPa | 1449.6 ± 0.72
220 K, 25118 kPa | 1476.2 ± 0.73
220 K, 30121 kPa | 1501.8 ± 0.74
220 K, 35125 kPa | 1526.5 ± 0.75
220 K, 40129 kPa | 1550.3 ± 0.76
220 K, 45133 kPa | 1573.3 ± 0.76
220 K, 50136 kPa | 1595.6 ± 0.77
220 K, 60144 kPa | 1638.2 ± 0.79
220 K, 70151 kPa | 1678.5 ± 0.81
220 K, 80158 kPa | 1716.8 ± 0.82
220 K, 90165 kPa | 1753.2 ± 0.83
220 K, 100172 kPa | 1788.2 ± 0.85
240 K, 252.21 kPa | 1219.3 ± 0.63
240 K, 602.15 kPa | 1222 ± 0.63
240 K, 1103 kPa | 1225.8 ± 0.63
240 K, 2103.5 kPa | 1233.3 ± 0.63
240 K, 2104.3 kPa | 1233.3 ± 0.63
240 K, 3104.1 kPa | 1240.7 ± 0.64
240 K, 3105.1 kPa | 1240.7 ± 0.64
240 K, 4104.7 kPa | 1248 ± 0.64
240 K, 4105.9 kPa | 1248 ± 0.64
240 K, 5105.3 kPa | 1255.2 ± 0.64
240 K, 5106.6 kPa | 1255.2 ± 0.64
240 K, 6107.3 kPa | 1262.3 ± 0.64
240 K, 7108.1 kPa | 1269.3 ± 0.65
240 K, 8108.8 kPa | 1276.2 ± 0.65
240 K, 9109.5 kPa | 1283.1 ± 0.65
240 K, 10110 kPa | 1289.8 ± 0.65
240 K, 12612 kPa | 1306.4 ± 0.66
240 K, 15113 kPa | 1322.5 ± 0.67
240 K, 17615 kPa | 1338.1 ± 0.67
240 K, 20116 kPa | 1353.3 ± 0.68
240 K, 25120 kPa | 1382.7 ± 0.69
240 K, 30123 kPa | 1410.7 ± 0.7
240 K, 35127 kPa | 1437.6 ± 0.71
240 K, 40130 kPa | 1463.4 ± 0.72
240 K, 45134 kPa | 1488.2 ± 0.73
240 K, 50138 kPa | 1512.2 ± 0.74
240 K, 60145 kPa | 1557.8 ± 0.76
240 K, 70152 kPa | 1600.8 ± 0.78
240 K, 80158 kPa | 1641.4 ± 0.79
240 K, 90165 kPa | 1680 ± 0.81
240 K, 100172 kPa | 1716.9 ± 0.82
259.99 K, 12610 kPa | 1208.1 ± 0.62
259.99 K, 80158 kPa | 1569.8 ± 0.76
259.99 K, 90165 kPa | 1610.4 ± 0.78
260 K, 251.45 kPa | 1109.1 ± 0.58
260 K, 601.45 kPa | 1112.2 ± 0.59
260 K, 1102.2 kPa | 1116.6 ± 0.59
260 K, 2102.8 kPa | 1125.3 ± 0.59
260 K, 2103.1 kPa | 1125.3 ± 0.59
260 K, 3103.4 kPa | 1133.8 ± 0.59
260 K, 3103.8 kPa | 1133.8 ± 0.59
260 K, 4104.1 kPa | 1142.1 ± 0.6
260 K, 4104.5 kPa | 1142.2 ± 0.6
260 K, 5104.7 kPa | 1150.3 ± 0.6
260 K, 5105.2 kPa | 1150.4 ± 0.6
260 K, 6105.9 kPa | 1158.5 ± 0.6
260 K, 7106.5 kPa | 1166.4 ± 0.61
260 K, 8107.2 kPa | 1174.3 ± 0.61
260 K, 9108 kPa | 1182 ± 0.61
260 K, 10108 kPa | 1189.6 ± 0.62
260 K, 15112 kPa | 1226 ± 0.63
260 K, 17613 kPa | 1243.4 ± 0.64
260 K, 20115 kPa | 1260.3 ± 0.64
260 K, 25119 kPa | 1292.5 ± 0.66
260 K, 30122 kPa | 1323.2 ± 0.67
260 K, 35126 kPa | 1352.3 ± 0.68
260 K, 40129 kPa | 1380.2 ± 0.69
260 K, 45133 kPa | 1406.9 ± 0.7
260 K, 50136 kPa | 1432.6 ± 0.71
260 K, 60144 kPa | 1481.3 ± 0.73
260 K, 70151 kPa | 1526.8 ± 0.75
260 K, 100172 kPa | 1649 ± 0.79
280 K, 250.96 kPa | 999.47 ± 0.54
280 K, 601 kPa | 1003.1 ± 0.54
280 K, 1101.7 kPa | 1008.2 ± 0.55
280 K, 2102.4 kPa | 1018.3 ± 0.55
280 K, 3103 kPa | 1028.1 ± 0.55
280 K, 3103.1 kPa | 1028.2 ± 0.55
280 K, 4103.6 kPa | 1037.8 ± 0.56
280 K, 4103.9 kPa | 1037.8 ± 0.56
280 K, 5104.1 kPa | 1047.2 ± 0.56
280 K, 5104.6 kPa | 1047.2 ± 0.56
280 K, 6105.4 kPa | 1056.5 ± 0.56
280 K, 7106.1 kPa | 1065.6 ± 0.57
280 K, 8106.8 kPa | 1074.5 ± 0.57
280 K, 9107.5 kPa | 1083.2 ± 0.57
280 K, 10108 kPa | 1091.8 ± 0.58
280 K, 12610 kPa | 1112.6 ± 0.59
280 K, 15112 kPa | 1132.7 ± 0.59
280 K, 17613 kPa | 1151.9 ± 0.6
280 K, 20115 kPa | 1170.5 ± 0.61
280 K, 25118 kPa | 1206 ± 0.62
280 K, 30122 kPa | 1239.3 ± 0.64
280 K, 35125 kPa | 1270.9 ± 0.65
280 K, 40128 kPa | 1300.9 ± 0.66
280 K, 45132 kPa | 1329.5 ± 0.67
280 K, 50135 kPa | 1357 ± 0.68
280 K, 60142 kPa | 1408.7 ± 0.7
280 K, 70149 kPa | 1456.8 ± 0.72
280 K, 80159 kPa | 1502 ± 0.74
280 K, 90166 kPa | 1544.6 ± 0.75
280 K, 100173 kPa | 1584.9 ± 0.77
299.99 K, 80158 kPa | 1438.2 ± 0.71
299.99 K, 90165 kPa | 1482.7 ± 0.73
299.99 K, 100172 kPa | 1524.7 ± 0.75
300 K, 599.94 kPa | 893.83 ± 0.5
300 K, 2102 kPa | 911.89 ± 0.51
300 K, 2104.2 kPa | 911.91 ± 0.51
300 K, 3102.8 kPa | 923.46 ± 0.51
300 K, 3104.9 kPa | 923.48 ± 0.51
300 K, 4103.6 kPa | 934.71 ± 0.52
300 K, 4105.7 kPa | 934.73 ± 0.52
300 K, 5104.4 kPa | 945.67 ± 0.52
300 K, 5105.9 kPa | 945.68 ± 0.52
300 K, 6106.5 kPa | 956.35 ± 0.53
300 K, 7107.2 kPa | 966.78 ± 0.53
300 K, 8107.8 kPa | 976.95 ± 0.53
300 K, 9108.4 kPa | 986.91 ± 0.54
300 K, 10109 kPa | 996.68 ± 0.54
300 K, 12610 kPa | 1020.2 ± 0.55
300 K, 15112 kPa | 1042.6 ± 0.56
300 K, 17614 kPa | 1064 ± 0.57
300 K, 20115 kPa | 1084.5 ± 0.58
300 K, 25118 kPa | 1123.3 ± 0.59
300 K, 30122 kPa | 1159.6 ± 0.6
300 K, 35125 kPa | 1193.6 ± 0.62
300 K, 40129 kPa | 1225.8 ± 0.63
300 K, 45132 kPa | 1256.4 ± 0.64
300 K, 50136 kPa | 1285.6 ± 0.65
300 K, 60143 kPa | 1340.3 ± 0.67
300 K, 70150 kPa | 1390.9 ± 0.69
300.01 K, 1100.4 kPa | 899.93 ± 0.5
320 K, 601.27 kPa | 783.22 ± 0.46

— the NIST ThermoML archive (doi:10.1021/acs.jced.6b00577)
